Test results taken from patent US11021481B2, “Substituted isoindolin-1-ones and 2,3-dihydro-1h-pyrrolo[3,4-c]pyridin-1-ones as HPK1 antagonists” (Nimbus Saturn, Inc., priority 2019, dated 2021).
Where a name gives a salt, the structure may show the parent alone.

Molecular target: HPK1 (Homo sapiens (Human), UniProt Q92918)
Test: HPK1 biochemical enzyme assay (microfluidic mobility shift assay)
Conditions: 1.5 nM HPK1, ATP 1 mM final, 30 min preincubation, 60 min at RT, Caliper EZ Reader; read-out: HPK1 1000UMATP caliper IC50
Summary of the method: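 Mobility shift readout of HPK1 activity after a 60 min RT reaction with 1 mM ATP, 1 μM substrate and 5 mM MgCl2. Enzyme/substrate mix was first exposed to compounds for 30 min, using ten-point curves topping at 3 μM final.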

HPK1, sequence (Q92918 whole entry): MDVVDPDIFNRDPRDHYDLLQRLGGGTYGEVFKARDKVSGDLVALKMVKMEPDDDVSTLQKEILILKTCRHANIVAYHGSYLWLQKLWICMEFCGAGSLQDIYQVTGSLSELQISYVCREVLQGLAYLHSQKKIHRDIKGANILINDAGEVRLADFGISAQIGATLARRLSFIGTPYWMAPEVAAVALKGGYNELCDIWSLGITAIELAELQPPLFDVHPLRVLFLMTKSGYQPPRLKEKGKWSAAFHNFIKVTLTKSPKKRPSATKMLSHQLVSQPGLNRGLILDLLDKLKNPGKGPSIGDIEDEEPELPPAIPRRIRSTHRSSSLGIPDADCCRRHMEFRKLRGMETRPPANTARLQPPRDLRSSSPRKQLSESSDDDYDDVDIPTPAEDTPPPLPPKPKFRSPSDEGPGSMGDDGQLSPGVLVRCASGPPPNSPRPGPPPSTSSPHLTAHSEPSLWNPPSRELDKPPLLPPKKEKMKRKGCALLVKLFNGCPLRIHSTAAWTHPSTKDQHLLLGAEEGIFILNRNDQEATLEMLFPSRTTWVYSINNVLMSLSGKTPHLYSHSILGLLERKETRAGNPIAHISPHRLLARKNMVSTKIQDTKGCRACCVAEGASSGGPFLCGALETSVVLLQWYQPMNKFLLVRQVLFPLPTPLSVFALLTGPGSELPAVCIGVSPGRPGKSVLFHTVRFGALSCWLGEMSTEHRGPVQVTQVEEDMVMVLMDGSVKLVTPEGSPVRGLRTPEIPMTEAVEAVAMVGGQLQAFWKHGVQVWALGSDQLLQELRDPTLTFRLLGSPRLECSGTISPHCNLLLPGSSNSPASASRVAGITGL

Molecule | IC50
O=C1NCc2c(-c3cnc4cc(C(F)F)ccn34)ccc(Nc3ccc([C@@]4(O)CCOC4)cn3)c21 [I-610, (S)-4-(7-(difluoromethyl)-imidazo[1,2-a]pyridin-3-yl)-7-((5-(3-hydroxytetra-hydrofuran-3-yl)pyridin-2-yl)amino)isoin-dolin-1-one] | < 100 nM
CN(Cc1nc(Nc2ccc(-c3cnc4cc(F)ccn34)c3c2C(=O)NC3)ccc1[C@H]1CCOC1)C1CC1 [I-737] | < 100 nM
O=C1NCc2c(-c3cnc4cc(F)ccn34)ccc(Nc3ccc([C@H]4CCOC4)c(CN4CC[C@@H](O)C4)n3)c21 [I-783, 4-(7-f1uoroimidazo [1,2-a]pyridin-3-yl)-7-((6-(((R)-3-hydroxypyrrol-idin-1-yl)methyl)-5-((R)-tetrahydrofuran-3-yl)pyridin-2-yl)amino)isoin-dolin-1-one] | < 100 nM
O=C1NCc2c(-c3cnc4cc(F)ccn34)ccc(Nc3ccc(S(=O)(=O)CC4COC4)cn3)c21 [I-377, 4-(7-fluoroimidazo [1,2-a]pyridin-3-yl)-7-((5-((oxctan-3-ylmethyl)sulf-onyl)pyridin-2-yl)amino)isoin-dolin-1-one] | 100 to 1000 nM
Cc1ccn2c(-c3ccc(Nc4ccc(N5CCO[C@H](C(C)(C)O)C5)cn4)c4c3CNC4=O)cnc2c1F [I-463, 4-(8-fluoro-7-methyl-imidazol [1,2-a]pyridin-3-yl)-7-[[5-[(2S)-2-(1-hydroxy-1-methyl-ethyl)morpholin-4-yl]-2-pyridyl]amino]isoindolin-1-one] | < 100 nM
Cc1cc(Nc2cnc(-c3ccnc4c3ccn4C)c3c2C(=O)NC3)nc(N2CC[C@H]3CNC[C@H]32)c1 [I-641, 7-((6-((3aS.6aS)-hcxahydropyrr-olo[3,4-b]pyrrol-1(2H)-yl)-4-methylpyridin-2-yl)amino)-4-(1-methyl-1H-pyrrolo[2,3-b]pyridin-4-yl)-2,3-dihydro-1H-pyrrolo[3,4-c]pyridin-1-one] | < 100 nM
Cn1ccc2c(-c3ncc(Nc4ccnc(N5CC[C@H]6CNC[C@H]65)n4)c4c3CNC4=O)ccnc21 [I-684, 7-((2-((3aS, 6aS)-hexahydro-pyrrolo[3,4-b]pyrrol-1(2H)-yl)pyrimidin-4-yl)amino)-4-(1-methyl-1H-pyrrolo[2,3-b)pyridin-4-yl)-2,3-dihydro-1H-pyrrolo[3,4-c]pyridin-1-one] | < 100 nM
CN1CCN(c2cccc(Nc3ccc(-c4cnc5cc(F)ccn45)c4c3C(=O)NC4)n2)CC1 [I-230, 4-(7-fluoroimidazo [1,2-a]pyridin-3-yl)-7-[[6-(4-methylpiperazin-1-yl)-2-pyridyl)amino] isoindolin-1-one] | < 100 nM
CN1CCc2c(-c3ccc(Nc4ccc(N5CCNCC5)cn4)c4c3CNC4=O)ccnc21 [I-93, 4-(1-methyl-2,3-dihydropyrrolo [2,3-b]pyridin-4-yl)-7-[(5-piperazin-1-yl-2-pyridyl)amino] isoindolin-1-one] | < 100 nM
CN1C[C@H](c2ccc(Nc3ccc(-c4cnc5cnccn45)c4c3C(=O)NC4)nc2)CCC1=O [I-326, (S)-4-(imidazo[1,2-a]pyrazin-3-yl)-7-((5-(1-methyl-6-oxopiperidin-3-yl)pyridin-2-yl)amino)isoin-dolin-1-one] | < 100 nM
CN(C)Cc1nc(Nc2ccc(-c3cnc4cc(F)ccn34)c3c2C(=O)NC3)ccc1S(C)(=O)=O [I-796, 7-((6-((dimethylamino)-methyl)-5-(methylsulfon-yl)pyridin-2-yl)amino)-4-(7-fluoroimidazo [1,2-a]pyridin-3-yl)isoindolin-1-one] | < 100 nM
CN(C)Cc1nc(Nc2ccc(-c3cnc4cc(F)ccn34)c3c2C(=O)NC3)ccc1N1CCO[C@@H](C(C)(C)O)C1 [I-775, (R)-7-((6-((dimethylamino)-methyl)-5-(2-(2-hydroxypropan-2-yl)morpho-lino)pyridin-2-yl)amino)-4-(7-fluoroimidazo [1,2-a]pyridin-3-yl)isoindolin-1-one] | < 100 nM
C[C@@H]1CCn2c(-c3ccc(Nc4ccc(N5CCC(O)CC5)cn4)c4c3CNC4=O)cnc2C1 (single isomer, unassigned) [I-302] | 100 to 1000 nM
CN(Cc1nc(Nc2ccc(-c3cnc4cc(F)ccn34)c3c2C(=O)NC3)ccc1[C@@H]1CCOC1)CC(F)F (single isomer, unassigned) [I-749] | < 100 nM
Cc1cnc2c(ccn2C)c1-c1ccc(Nc2ccc(N3CCNCC3)cn2)c2c1CNC2=O [I-99, 4-(l,5-dimethylpyrrolo [2,3-b]pyridin-4-yl)-7-[(5-piperazin-1-yl-2-pyridyl)amino] isoindolin-1-one] | 100 to 1000 nM
COC[C@H]1CN(c2ccc(Nc3cnc(-c4ccnc5c4ccn5C)c4c3C(=O)NC4)nc2)CC[C@H]1O [I-423, 7-((5-((3R,4R)-4-hydroxy-3-(methoxymeth-yl)piperidin-1-yl)pyridin-2-yl)amino)-4-(1-methyl-l H-4-pyrrolo[2,3-b]pyridin-4-yl)-2,3-dihydro-1H-pyrrolo[3,4-c]pyridin-1-one] | < 100 nM
COc1cccn2c(-c3ccc(Nc4ccc(N5CCC(O)CC5)cn4)c4c3CNC4=O)cnc12 [I-166, 7-[[5-(4-hydroxy-1-piperidyl)-2-pyridyl]amino]-4-(8-methoxy-imidazo[1,2-a]pyridin-3-yl)isoindolin-1-one] | < 100 nM

Molecule | IC50
CNC1CCN(c2ccc(Nc3ccc(-c4ccnc5c4ccn5C)c4c3C(=O)NC4)nc2)CC1 [I-62, 7-[[5-[4-(methylamino)-1-piperidyl]-2-pyridyl]amino]-4-(1-methylpyrrolo [2,3-b]pyridin-4-yl)isoindolin-1-one] | < 100 nM
CN1CCN(c2ccc(Nc3cnc(-c4c[nH]c5ccccc45)c4c3C(=O)NC4)nc2)CC1 [I-2, 4-(1H-indol-3-yl)-7-[[5-(4-methylpiperazin-1-yl)-2-pyridyl]amino]-2,3-dihydropyrrolo [3,4-c]pyridin-1-one] | 100 to 1000 nM
Cn1ccc2c(-c3ccc(Nc4ccc(N5CCNCC5)cn4)c4c3CNC4=O)ccnc21 [I-43] | < 100 nM
CN1CCN(CC2(O)CCN(c3ccc(Nc4cnc(-c5ccnc6c5ccn6C)c5c4C(=O)NC5)nc3)CC2)CC1 [I-401, 7-((5-(4-hydroxy-4-((4-methylpiperazin-1-yl)methyl)piper-idin-1-yl)pyridin-2-yl)amino)-4-(1-methyl-1H-pyrrolo[2,3-b]pyridin-4-yl)-2,3-dihydro-1H-pyrrolo[3,4-c]pyridin-1-one] | < 100 nM
CN(C)C[C@@H]1CN(c2ccc(Nc3ccc(-c4cnc5cc(F)ccn45)c4c3C(=O)NC4)nc2)CCO1 [I-603, (R)-7-((5-(2-((dimethylamino)-methyl)mor-pholino)pyridin-2-yl)amino)-4-(7-fluoroimidazo [1,2-a]pyridin-3-yl)isoindolin-1-one] | < 100 nM
CN(C)Cc1nc(Nc2ccc(-c3cnc4cc(F)ccn34)c3c2C(=O)NC3)ccc1N1CCC(O)CC1 [I-777, 7-((6-((dimethylamino)-methyl)-5-(4-hydroxypiperidin-1-yl)pyridin-2-yl)amino)-4-(7-fluoroimidazo [1,2-a]pyridin-3-yl)isoindolin-1-one] | < 100 nM
Cn1ccc2c(-c3ccc(Nc4ccc(N5CCNCC5)cn4)c4c3CNC4=O)ncnc21 [I-123, 4-(7-methylpyrrolo [2,3-d]pyrimidin-4-yl)-7-[(5-piperazin-1-yl-2-pyridyl)amino] isoindolin-1-one] | < 100 nM
(R)-7-((6- ((dimethylamino)- methyl)-5-(2- (methoxymeth- yl)morpholino )pyridin-2- yl)amino)-4-(7- fluoroimidazo [1,2-a]pyridin- 3-yl)isoindolin- 1-one [I-711] | < 100 nM
CN1CCN(c2cccc(Nc3cnc(-c4cnc5ccccn45)c4c3C(=O)NC4)n2)CC1 [I-451, 4-imidazo[1,2-a]pyridin-3-yl-7-[[6-(4-methylpiperazin-1-yl)-2-pyridyl]amino]-2,3-dihydropyrrolo [3,4-c]pyridin-1-one Bis formate] | < 100 nM
O=C1NCc2c(-c3cnc4cc(F)ccn34)ccc(Nc3ccc([C@@H]4CCOC4)c(CN4CC[C@H](F)C4)n3)c21 (stereo in doubt) [I-736] | < 100 nM
CN(C)CC1(O)CCCN(c2ccc(Nc3ccc(-c4cnc5cc(F)ccn45)c4c3C(=O)NC4)nc2)C1 (stereo not shown) [I-385, 7-((5-(3-((dimethylamino)-methyl)-3-hydroxypiperidin-1-yl)pyridin-2-yl)amino)-4-(7-fluoroimidazo [1,2-a]pyridin-3-yl)isoindolin-1-one] | < 100 nM
CC(C)(O)C1CCN(c2ccc(Nc3ccc(-c4cnc5cc(F)ccn45)c4c3C(=O)NC4)nc2)CC1 [I-224] | < 100 nM
CN(C)Cc1nc(Nc2ccc(-c3cnc4cc(F)ccn34)c3c2C(=O)NC3)ccc1N1CCC(=O)N(C)CC1 [I-534, 7-[[6-[(dimethylamino)-methyl]-5-(4-methyl-5-oxo-1,4-diazepan-1-yl)-2-pyridyl]amino]-4-(7-fluoroimidazo [1,2-a]pyridin-3-yl)isoindolin-1-one Formic acid salt] | < 100 nM
7-[[5-[(2R)-2- (1-hydroxy-1- methylethyl)morpholin- 4-yl]-2- pyridyl]amino]- 4-imidazo[1,2- a]pyrazin-3-yl- isoindolin-1-one [I-486] | < 100 nM
CC(C)(O)[C@@H]1CN(c2ccc(Nc3ccc(-c4cnc5cnccn45)c4c3C(=O)NC4)nc2)CCO1 [I-457, 7-[[5-[(2S)-2-(1-hydroxy-1-methyl-ethyl)morpholin-4-yl]-2-pyridyl]amino] 4-imidazo[1,2-a]pyrazin-3-yl-isoindolin-1-one] | < 100 nM
Cc1cnn2c(-c3ccc(Nc4ccc(N5CCC(O)CC5)cn4)c4c3CNC4=O)ccnc12 [I-165, 7-[[5-(4-hydroxy-1-piperidxl)-2-pyridyl]amino]-4-(3-methylpyra-zolo[1,5-a]pyrimidin-7-yl)isoindolin-1-one] | > 1000 nM
Cc1cccc2c(-c3ncc(Nc4ccc(N5CCN(C)CC5)cn4)c4c3CNC4=O)c[nH]c12 [I-5, 4-(7-methyl-1H-indol-3-yl)-7-[[5-(4-methylpiperazin-1-yl)-2-pyridyl]amino]-2,3-dihydropyrrolo [3,4-c]pyridin-1-one] | 100 to 1000 nM
